Measurements reported in patent US6605645B2, “Linear polyamine compounds and polyamine-based anti-tumor agents” (Riken, priority 1998, dated 2003).
Like-named read-outs stand apart in the source and are kept apart here.

Key:
Format in all cases: cell-based
[1] = tested on: melanoma (Me) cell line; assay: HCC panel drug sensitivity test, melanoma line; settings: Homo sapiens; LOX-IMVI (Me)
Experimental: (§1) For the assay of anticancer effect, used was an HCC panel comprising 39 cell lines in total: 7 cell lines of lung cancer (Lu), 6 cell lines of stomach cancer (St), 5 cell lines of colon cancer (Co), 5 cell lines of ovarian cancer (Ov), 6 cell lines of brain tumor (CNS), 5 cell lines of breast cancer (Br), 2 cell lines of renal cancer (Re), 2 cell lines of prostate cancer (xPg) and 1 cell line of melanoma (Me). These were used as one panel, and an in-vitro drug sensitivity test was performed by using the above three compounds to obtain sensitivity patterns against each compound (mean graphs mentioned below). Further, the mean graphs obtained as the results of the above sensitivity test were compared with data in a database.
(§2) Specifically, the drug sensitivity test was performed according to the following procedures. The above 39 cancer cell lines were seeded to a 96-well plate and incubated overnight. On the following day, sample solutions each containing each of the above three compounds (5 doses, usually from 10^-4 M to 10^-8 M with 1 log intervals, the highest concentration is referred to as “High Conc”) were added to the above 96-well plate and cultured for further 2 days. Subsequently, the cell proliferation was calorimetrically determined in the obtained plate by using Sulfo Rhodamine B. […]

[2] = tested on: colon cancer (Co) cell lines; assay: HCC panel drug sensitivity test, colon cancer lines; settings: Homo sapiens
Experimental: as §1
(§3) Specifically, the drug sensitivity test was performed according to the following procedures. The above 39 cancer cell lines were seeded to a 96-well plate and incubated overnight. On the following day, sample solutions each containing each of the above three compounds (5 doses, usually from 10^-4 M to 10^-8 M with 1 log intervals, the highest concentration is referred to as “High Conc”) were added to the above 96-well plate and cultured for further 2 days. Subsequently, the cell proliferation was calorimetrically determined in the obtained plate by using Sulfo Rhodamine B.
(§4) In the data analysis, GI50 (concentration at which cell proliferation is inhibited to 50% of a control) is obtained as a parameter for data analysis using the cell number immediately before exposure of cells to the test compound (Time Zero) as a standard. Specifically, the obtained data is used for the following calculation:
(§5) 1) If a mean optical density value at each concentration (OD test) is larger than the OD value at Time Zero (Tz), i.e., OD test >Tz, then percent growth (PG %)=((OD test−Tz)/(OD control−Tz))×100, wherein 1 OD control is the OD value of control. On the contrary, if OD test <Tz, then PG %=((OD test−Tz)/Tz)×100. In this case, PG % is a negative value.
(§6) 2) The above PG % values obtained for each cell line are plotted against concentrations (logarithm) according to the organ cancer type. The concentration at the point where each curve intersects with a horizontal line, provided at PG 50%, corresponds to log GI50.

[3] = tested on: stomach cancer (St) cell lines; assay: HCC panel drug sensitivity test, stomach cancer lines; settings: Homo sapiens
Experimental: as §1, §3, §4, §5, §6

[4] = tested on: breast cancer (Br) cell lines; assay: HCC panel drug sensitivity test, breast cancer lines; settings: Homo sapiens
Experimental: as §1, §3, §4, §5, §6

[5] = tested on: ovarian cancer (Ov) cell lines; assay: HCC panel drug sensitivity test, ovarian cancer lines; settings: Homo sapiens
Experimental: as §1, §3, §4, §5, §6

[6] = tested on: lung cancer (Lu) cell lines; assay: HCC panel drug sensitivity test, lung cancer lines; settings: Homo sapiens
Experimental: as §1, §3, §4, §5, §6

[7] = tested on: prostate cancer (xPg) cell lines; assay: HCC panel drug sensitivity test, prostate cancer lines; settings: Homo sapiens; DU-145 (xPg)
Experimental: as §1, §2

[8] = tested on: HCC panel comprising 39 cell lines; assay: HCC panel in-vitro drug sensitivity test (Sulfo Rhodamine B), anticancer effect on cultured human cancer cell lines; settings: for Delta / Range: HCC panel log GI50; for Delta: criterion ≧ 0.5; for Range: criterion ≧ 1.0; for evaluation as anticancer agent (criteria A-D: novelty, MG-MID, Delta/Range, COMPARE): HCC panel mean graph evaluation; for GI50: Homo sapiens
Experimental: The anticancer effect of each compound was determined by using the obtained concentration.
as §1, §3
The obtained data of the measurement results are shown as mean graphs. Mean graphs (also referred to as fingerprints) visually expresses effective concentration deviations of a sample substance against individual cancer cell lines so that the sensitivity of each cancer cell line against the sample can be recognized at a glance. The mean graph is also referred to as fingerprint because it represents a pattern unique to each drug.
as §4, §5, §6
3) Then, “mean graphs” are created. Mean log GI50 values are obtained for all of the assayed cell lines and referred to as mean graph midpoints (MG-MID). A difference between each of the mean values and the log GI50 value for each cell line is obtained (that is, GI50 for each cell line is represented as a logarithmic value of a multiple or an aliquot of the mean value). The resulting differences are depicted as bar charts extending a left or right side from the center line of mean log GI50 (scale 0) to obtain a mean graph. The higher differential sensitivity a cell line has, the longer the bar extends to the right. One scale corresponds to 1 log. The value of “Delta” provided at the bottom of the mean graph represents the difference between the value for the most sensitive cell line and the mean value. The value of “Range” provided below “Delta” represents the difference between the log GI50 values of the most sensitive cell line and the least sensitive one. […]

[9] = tested on: brain tumor (CNS) cell lines; assay: HCC panel drug sensitivity test, brain tumor lines; settings: Homo sapiens
Experimental: as §1, §3, §4, §5, §6

[10] = OVCAR-3 (Ov), read-out: log GI50 (converted)
[11] = OVCAR-4 (Ov), read-out: log GI50 (converted)
[12] = OVCAR-5 (Ov), read-out: log GI50 (converted)
[13] = OVCAR-8 (Ov), read-out: log GI50 (converted)
[14] = DMS-114, DMS114 (Lu), read-out: log GI50 (converted)
[15] = DMS-273, DMS273 (Lu), read-out: log GI50 (converted)
[16] = A549 (Lu), read-out: log GI50 (converted)
[17] = NCI-H23 (Lu), read-out: log GI50 (converted)
[18] = NCI-H226 (Lu), read-out: log GI50 (converted)
[19] = NCI-H460 (Lu), read-out: log GI50 (converted)
[20] = NCI-H522 (Lu), read-out: log GI50 (converted)
[21] = 48 h, logarithmic values of molar concentration, for many cancer cell lines of the HCC panel, cultured 2 days, Sulfo Rhodamine B, read-out: log GI50 (concentration at which cell proliferation is inhibited to 50% of the control) (converted)
[22] = mean over HCC panel, criterion <−5, read-out: MG-MID (log GI50) (converted)
[23] = SF-268 (CNS), read-out: log GI50 (converted)
[24] = SF-539 (CNS), read-out: log GI50 (converted)
[25] = SNB-75 (CNS), read-out: log GI50 (converted)

GI50 [1] | GI50 ([2]; HCC 2998, HCC2998 (Co)) | GI50 ([2]; HCT-116 (Co)) | GI50 ([2]; HT-29 (Co)) | GI50 ([3]; MKN-1, MKN1 (St)) | GI50 ([3]; MKN-7, MKN7 (St)) | GI50 ([3]; MKN-28, MKN28 (St)) | GI50 ([3]; MKN-45, MKN45 (St)) | GI50 ([3]; St-4 (St)) | GI50 ([4]; HBC4, HBC-4 (Br)) | GI50 ([4]; HBC5, HBC-5 (Br)) | GI50 ([4]; MCF7, MCF-7 (Br)) | GI50 ([4]; BSY-1 (Br)) | GI50 [5, 10] | GI50 [5, 11] | GI50 [5, 12] | GI50 [5, 13] | Compound | Delta [8] | Range [8] | evaluation as anticancer agent (criteria A-D: novelty, MG-MID, Delta/Range, COMPARE) [8] | further results
30.9 µM | 10.2 µM | 6.92 µM | 8.71 µM | 12 µM | 4.37 µM | 5.25 µM | 12 µM | 6.92 µM | 4.57 µM | 2.24 µM | 56.2 µM | 7.08 µM | 1.66 µM | 4.17 µM | 5.37 µM | 2.75 µM | C(CCCNCCCCNCC1CC1)CCCNCCCCNCC1CC1 [BCPM474] | 0.84 | 1.76 | the most interesting | GI50 ([2]; KM12, KM-12 (Co)): 28.2 µM; GI50 ([2]; HCT-15 (Co)): 37.2 µM; GI50 ([3]; MKN-74, MKN74 (St)): 47.9 µM; GI50 ([5]; SK-OV-3 (Ov), read-out: log GI50 (converted)): 5.75 µM; GI50 [6, 14]: 3.8 µM; GI50 [6, 15]: 4.17 µM; GI50 [6, 16]: 2.82 µM; GI50 [6, 17]: 4.37 µM; GI50 [6, 18]: 9.12 µM; GI50 [6, 19]: 16.6 µM; GI50 [6, 20]: 3.24 µM; GI50 [7]: 67.6 µM; GI50 [8, 21]: < 100 µM; GI50 [8, 22]: 11.5 µM; GI50 [9, 23]: 4.68 µM; GI50 ([9]; SF-295 (CNS), read-out: log GI50 (converted)): 8.71 µM; GI50 [9, 24]: 3.47 µM; GI50 [9, 25]: 3.63 µM
 |  |  |  |  |  |  |  |  |  |  |  |  |  |  |  |  | CCNCCCCNCCCCCCCCNCCCCNCC [BET484, 1,18-bis(ethylamino)-5,14-diazaoctadecane] | 1.45 | 1.62 | the most interesting | GI50 ([5]; OVCAR-3, read-out: log GI50 (converted)): 20 µM; GI50 ([5]; OVCAR-4, read-out: log GI50 (converted)): 5.89 µM; GI50 ([5]; OVCAR-5, read-out: log GI50 (converted)): 72.4 µM; GI50 ([6]; A549, read-out: log GI50 (converted)): 16.2 µM; GI50 ([6]; DMS-273, read-out: log GI50 (converted)): 3.02 µM; GI50 ([8]; 48 h, read-out: log GI50 (concentration at which cell proliferation is inhibited to 50% of the control) (converted)): < 100 µM; GI50 ([8]; read-out: MG-MID (log GI50) (converted)): 67.6 µM; GI50 ([9]; read-out: log GI50, SF-539 (CNS) (converted)): 7.94 µM; GI50 ([9]; read-out: log GI50, SNB-75 (CNS) (converted)): 12.9 µM
6.31 µM | 63.1 µM | 6.76 µM | 23.4 µM | 7.24 µM | 4.17 µM | 4.68 µM | 6.46 µM | 6.46 µM | 6.92 µM | 0.891 µM | 13.8 µM | 3.55 µM | 3.02 µM | 2.88 µM | 4.37 µM | 5.75 µM | C(CCCNCCCCNCC1CC1)CCNCCCCNCC1CC1 [BCPM464, 1,16-bis(cyclopropylmethylamino)-5,12-diazahexadecane] | 1.19 | 2.05 | the most interesting | GI50 [6, 14]: 4.37 µM; GI50 [6, 15]: 4.37 µM; GI50 [6, 16]: 2.82 µM; GI50 [6, 17]: 3.55 µM; GI50 [6, 18]: 7.24 µM; GI50 [6, 19]: 9.77 µM; GI50 [6, 20]: 1.82 µM; GI50 [8, 21]: < 100 µM; GI50 [8, 22]: 13.8 µM; GI50 [9, 23]: 87.1 µM; GI50 [9, 24]: 3.16 µM; GI50 [9, 25]: 3.31 µM; GI50 ([9]; U251 (CNS), read-out: log GI50 (converted)): 60.3 µM
